{"source": "patent US9326539B2", "about": "“Compositions comprising dietary fat complexers and methods for their use” (Soho Flordis International Pty. Ltd., priority 2002, dated 2016)", "assay": "in vitro study of vegetable oil, water and cyclodextrin: band of wax-like complex", "format": "physicochemical", "conditions": "vegetable oil 4 g, water 6 g, varying amounts of cyclodextrin (100-2,000 mg), centrifuged", "protocol": "FIG. 9A-9C depicts the results of an in vitro study of vegetable oil (4 g), water (6 g) (with added food coloring for contrast) and varying amounts of (A) α-cyclodextrin (100-2,000 mg, right to left), (B) β-cyclodextrin or (C) γ-cyclodextrin. A band of “wax-like” material layered between the oil and aqueous phases is apparent in the tubes. […] Note the increasing size (right to left) of a white layer of un-reacted α-cyclodextrin in the bottom of the tubes. This material is displaced from solution by either the oil or the α-cyclodextrin-oil complex. These tubes were centrifuged in order to improve the definition of the layers. The “wax-like” complex is of such a consistency that all of the tubes except for the furthest two to the right can be inverted without leakage of the aqueous phase around the complex.\nFIGS. 9A-9C depict the results of an in vitro study of vegetable oil (4 g), water (6 g) (with added food coloring for contrast) and varying amounts of (A) α-cyclodextrin (100-2,000 mg, right to left), (B) β-cyclodextrin or (C) γ-cyclodextrin. A band of “wax-like” material layered between the oil and aqueous phases is apparent in the tubes. […] Note the increasing size (right to left) of a white layer of un-reacted α-cyclodextrin in the bottom of the tubes. This material is displaced from solution by either the oil or the α-cyclodextrin-oil complex. These tubes were centrifuged in order to improve the definition of the layers. The “wax-like” complex is of such a consistency that all of the tubes in 9A except for the furthest two to the right can be inverted without leakage of the aqueous phase around the complex.\nThus one would not have expected α-cyclodextrin to complex triglyceride molecules because the molecules would not fit within the pore of the α α-cyclodextrin. […] The white substance in the bottom of the tubes is precipitated cyclodextrin.", "data": [{"smiles": "OC[C@H]1O[C@@H]2O[C@H]3[C@H](O)[C@@H](O)[C@@H](O[C@H]4[C@H](O)[C@@H](O)[C@@H](O[C@H]5[C@H](O)[C@@H](O)[C@@H](O[C@H]6[C@H](O)[C@@H](O)[C@@H](O[C@H]7[C@H](O)[C@@H](O)[C@@H](O[C@H]1[C@H](O)[C@H]2O)O[C@@H]7CO)O[C@@H]6CO)O[C@@H]5CO)O[C@@H]4CO)O[C@@H]3CO", "note": "[α-cyclodextrin]", "values": [{"measurement": "band of wax-like material (complexed fat) between oil and aqueous phases", "result": "maximum in the tube labeled 10% (400 mg α-cyclodextrin/4 g oil)"}]}]}
